Test results reported in article PMC12386367, “Importin α3 Is Tolerant to Nuclear Localization Signal Chirality” (International Journal of Molecular Sciences, 2025).
Non-standard residues stand in square brackets, D forms with d. Residues, ends and D or L forms follow the SMILES beside them.

What was measured:
[1] = Translational diffusion NMR (DOSY) of NLS peptides; type: physicochemical; conditions: ~100 μM peptide, 50 mM deuterated Tris pH 7.2, 100% D2O, 10 °C
From the text: For the four peptides, we measured the experimental value of D for dioxane ranging from (1.2 ± 0.1) × 10^−5 to (1.05 ± 0.02) × 10^−5 cm^2 s^−1 in each solution containing the corresponding peptide; we assumed a hydrodynamic radius of 2.12 Å for dioxane (Table 1) under any condition. […] Furthermore, the values of D were similar for the D- and L-peptides, and the latter were already being described as disordered. Thus, we can conclude that the four D-peptides were monomeric and disordered, like the L-form counterparts, and, then, there was no difference in the hydrodynamic properties of the peptides by changing the enantiomeric nature of the residues.
The NMR spectra were acquired at 10 °C on a Bruker Avance III spectrometer (Bruker GmbH, Mannheim, Germany), equipped with a triple-resonance probe and z-pulse field gradients. All NMR experiments with D-NLS peptides were carried out in 50 mM deuterated Tris buffer (not corrected for isotope effects), pH 7.2. Spectra were calibrated with TSP, by considering pH-dependent changes in its chemical shifts; probe temperature was calibrated with pure methanol.
The typical D-NLS peptide concentrations in DOSY experiments were ~100 μM, and 128 scans were acquired, in which the gradient strength was varied linearly in sixteen steps, between 2 and 95% of the total power of the gradient coil. Measurements of the translational self-diffusion coefficient, D, were performed with the pulsed-gradient spin-echo sequence in the presence of 100% D2O. Details on the experimental conditions and fitting of the resulting curves have been described elsewhere. Gradient strength was calibrated by using the value of D for the residual proton water signal in a sample containing 100% D2O, in a 5 mm tube [23]. Gradient length was 2.5 ms; the time between the two pulse gradients in the sequence was 250 ms; and the recovery delay between the bipolar gradients was 100 μs. The signals from methyl groups between 0.8 and 1.0 ppm were used for peak integration, for all the D-NLS peptides. A final concentration of 1% of dioxane, which was assumed to have a hydrodynamic radius Rh of 2.12 Å [23], was added to the solution of each peptide.

Impα3 [2] = molecular target: T1, Impα3 (Homo sapiens, UniProt O00629); experiment: Isothermal titration calorimetry (ITC) with Impα3; type: binding; conditions: Impα3, 50 mM Tris pH 8.0, 25 °C
T1 construct: Human importin α3 isoform (residues 1–521); made in house
T1 sequence (O00629 1-521): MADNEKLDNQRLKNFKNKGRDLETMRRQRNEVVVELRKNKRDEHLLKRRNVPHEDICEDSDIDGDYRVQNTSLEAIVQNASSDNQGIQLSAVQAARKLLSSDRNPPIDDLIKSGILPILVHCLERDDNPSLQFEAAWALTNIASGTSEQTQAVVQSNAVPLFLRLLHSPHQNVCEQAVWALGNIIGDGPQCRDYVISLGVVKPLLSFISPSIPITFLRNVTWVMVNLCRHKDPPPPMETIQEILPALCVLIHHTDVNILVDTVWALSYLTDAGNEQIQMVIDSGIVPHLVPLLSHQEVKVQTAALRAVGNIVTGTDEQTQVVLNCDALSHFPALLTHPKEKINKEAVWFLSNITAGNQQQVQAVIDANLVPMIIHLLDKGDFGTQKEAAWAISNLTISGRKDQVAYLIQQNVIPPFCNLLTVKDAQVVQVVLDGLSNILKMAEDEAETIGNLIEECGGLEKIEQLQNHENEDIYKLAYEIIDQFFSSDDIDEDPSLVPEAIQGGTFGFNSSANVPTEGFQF
Method: (§1) Calorimetric titrations for testing the interaction of D-NLS peptides with either Impα3 or ΔImpα3 were carried out in an VP-ITC instrument (Microcal, Northhamptom, MA, USA). The importin species were loaded into the cell calorimeter and the corresponding D-NLS peptide in the syringe in Tris buffer 50 mM, pH 8.0. All experiments were carried out at 25 °C.
(§2) These twenty-nine ITC experiments involved sequential injections of microliter amounts (10 µL) of a stock solution of D-NLS peptide (in a concentration range of 150–200 µM) into the calorimetric cell (1.4 mL); the cell initially contained protein solution (15 µM for either Impα3 or ΔImpα3 in protomer units). To correct for the heat evolved due to the dilution effect for adding the ligand (peptide) solution to the calorimetric cell, an independent experiment was performed, in which the same peptide solution was injected into the calorimetric cell loaded with buffer. After correction for the dilution heat, the isotherm was fitted to a binding model that assumed the existence of a single set of binding sites, by using the software v1.41 provided by the manufacturer.

∆Impα3 [3] = molecular target: T2, ∆Impα3 (Homo sapiens, UniProt O00629); experiment: Biolayer interferometry (BLI) binding to ∆Impα3; conditions: BLItz, ∆Impα3 immobilized via His-tag (0.25 μM), peptide 1–10 μM, 10 × kinetics buffer, 25 °C, error from pseudo-first order fit, at least two repeats, read-out: kon
T2 construct: IBB-depleted species of Impα3 (residues 64–521 of the intact protein); made in house
T2 sequence (O00629 64-521): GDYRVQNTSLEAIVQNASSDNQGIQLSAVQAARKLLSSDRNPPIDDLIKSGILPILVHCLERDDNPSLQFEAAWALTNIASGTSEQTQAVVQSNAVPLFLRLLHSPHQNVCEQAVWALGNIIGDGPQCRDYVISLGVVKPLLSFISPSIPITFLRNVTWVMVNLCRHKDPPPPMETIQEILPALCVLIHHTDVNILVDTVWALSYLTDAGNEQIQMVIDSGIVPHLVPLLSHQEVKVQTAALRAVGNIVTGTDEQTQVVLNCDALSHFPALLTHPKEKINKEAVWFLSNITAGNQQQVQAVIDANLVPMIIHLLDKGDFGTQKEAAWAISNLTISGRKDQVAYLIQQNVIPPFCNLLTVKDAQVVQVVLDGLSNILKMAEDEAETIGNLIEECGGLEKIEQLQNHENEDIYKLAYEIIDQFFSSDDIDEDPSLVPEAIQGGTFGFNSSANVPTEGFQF
Method: (§3) The association (kon) and dissociation (koff) rate constants of the binding of D-NLS peptides to either Impα3 or ∆Impα3 were determined by using a BLItz system (ForteBio, Pall, Barcelona, Spain). The buffer used in the experiments was that recommended by the manufacturer. […] The peptide concentrations were in a range from 1 to 10 μM during the association step. The general scheme of the protein association/dissociation reactions in the BLItz system for the D-NLS peptides was as follows: 30 s of initial baseline acquisition with the 10 × kinetics buffer (provided by the manufacturer); 120 s of loading either Impα3 and ∆Impα3 into the biosensor; 30 s of baseline acquisition with the 10 × kinetics buffer; 120 s of association of each peptide to the biosensor (which had been previously loaded with the importin species); and 120 s of monitoring of the dissociation of each peptide from the biosensor. All experiments were carried out at 25 °C.
(§4) Fittings of the BLI sensorgrams was carried out by using KaleidaGraph, as previously described. The interferometry response during the association step, R(t) (measured in response units, RU), and the binding rate, dR(t)/dt, could be used to evaluate the kinetics of the formation of the complex between Impα3/∆Impα3 and each D-NLS, according to:(2) dR/dt=konD-NLSRmax−Rt−koffR(t) where Rmax is proportional to the total concentration of biosensor-bound importin species; and [D-NLS] represents the concentration of the corresponding D-NLS peptide.
(§5) In Equation (2), R(t) is given by:(3) Rt= Req−Reqe^(−kobs t−t0) where Req is the steady-state (or equilibrium) response obtained at infinite time, when dR(t)/dt = 0, and t0 = 180 s is the time at which the association step between biosensor-immobilized Impα3/∆Impα3 and D-NLS in the solution started. We fitted the experimentally obtained R(t) under any condition as:(4) Rt= Req−Reqe^−kobs t−t0−R’eq(t−t0) where R^′eq was included to consider the lineal drift observed at longer times.
(§6) The dissociation process was always fitted to a single exponential, with R(t) given by:(6) Rt=R1 e^(−kofft−t0)−R^″eq(t−t0) where t0 = 300 is the time at which the dissociation of the D-NLS from the biosensor-bound Impα3/∆Impα3 started in our experimental set-up, R1 is the response level when dissociation starts, and the parameter R^″eq considers the linear drift observed at longer times.
(§7) The experiments were repeated at least twice for each peptide with each importin species.

Impα3 [4] = molecular target: T1, Impα3; experiment: Biolayer interferometry (BLI) binding to Impα3; conditions: peptide 1–10 μM, 25 °C
Method: as §3, §4, §5, §6, §7

∆Impα3 [5] = molecular target: T2, ∆Impα3; experiment: Isothermal titration calorimetry (ITC) with ∆Impα3; type: binding; conditions: ∆Impα3, 50 mM Tris pH 8.0, 25 °C
Method: as §1, §2

[6] = sequence synthesized in reverse order; ref [38]; cited from earlier work
From the text: A few additional conclusions can be drawn from our results, in the context of their relevance for understanding the importance of importin in the regulation of the nucleocytoplasmic transport of cargo proteins. Although we cannot rule out that the intrinsic high flexibility of Impα3 could be involved in its lack of selectivity towards different stereoisomers, we believe the following: (i) the intrinsic disorder of the isolated NLS peptides (derived from the cargos), as shown by NMR (Figure 1 and Figure 2), and (ii) the fact that the peptides remained disordered upon binding to the importin spe ...

Impα3 [7] = molecular target: T1, Impα3; conditions: literature value for L-NLS counterpart, ref [5],[6],[7], read-out: Kd (ITC) (L-NLS Peptide); cited from earlier work
From the text: (§8) Table 2 Kinetic and thermodynamic parameters of the binding reaction of D-NLS peptides to Impα3 ^a. | column: Kd (μM) (ITC/Fluorescence) (L-NLS Peptide) ^c || We also used ITC to determine the thermodynamic binding parameters in the association of each of the peptides to both importin species (Figure 4). […] For D-NLS-NUPR1L, the values of enthalpy, ∆H, were −2.5 ± 0.2 and −4.5 ± 0.7 kcal mol^−1 for the binding to Impα3 and ∆Impα3, respectively. On the other hand, the values previously ...

∆Impα3 [8] = molecular target: T2, ∆Impα3; conditions: literature value for L-NLS counterpart, ref [5],[6],[7], read-out: Kd (ITC) (L-NLS Peptide); cited from earlier work
From the text: as §8, with “Table 3 Kinetic and” for “Table 2 Kinetic and”, “peptides to ∆Impα3 ^a. |” for “peptides to Impα3 ^a. |”

[9] = L-NLS counterparts, literature values, ref [5],[6],[7], cited from earlier work
From the text: Table 1 Hydrodynamic properties of the D-NLS peptides ^a. | column: D (cm^2 s^−1) × 10^6 (Rh, Å) (L-NLS) ^d

CC(=O)N[C@H](CCCNC(=N)N)C(=O)N[C@@H](C(=O)N[C@H](CCCNC(=N)N)C(=O)N[C@H](CCCNC(=N)N)C(=O)N[C@H](CCC(=O)O)C(=O)N[C@H](CCC(N)=O)C(=O)N[C@H](C)C(=O)N[C@H](CC(C)C)C(=O)N[C@H](CCCNC(=N)N)C(=O)N[C@@H](C(=O)N[C@H](CC(N)=O)C(=O)N[C@H](Cc1c[nH]c2ccccc12)C(=O)N1CCC[C@@H]1C(=O)N[C@H](C)C(=O)N1CCC[C@@H]1C(=O)NCC(=O)NCC(=O)N[C@H](Cc1c[nH]cn1)C(=O)N[C@H](CCC(=O)O)C(=O)N[C@H](CCCNC(=N)N)C(=O)N[C@H](CCCCN)C(=O)N[C@@H](C(=O)N[C@H](C)C(=O)N[C@H](CCC(N)=O)C(N)=O)C(C)C)[C@H](C)O)[C@H](C)O [D-NLS-NUPR1L] (Ac-[dR][dT][dR][dR][dE][dQ][dA][dL][dR][dT][dN][dW][dP][dA][dP]GG[dH][dE][dR][dK][dV][dA][dQ]-NH2)
Diffusion coefficient D [1]: 2.0 ± 0.3 cm^2 s^−1 × 10^6
enthalpy ∆H (Impα3 [2]): -2.5 ± 0.2 kcal/mol
kon (∆Impα3 [3]): 51200 ± 700 M⁻¹ s⁻¹
kon (Impα3 [4]; BLItz, Impα3 immobilized via His-tag (0.25 μM), 10 × kinetics buffer, error from pseudo-first order fit, at least two repeats, read-out: kon): 68000 ± 7000 M⁻¹ s⁻¹
koff (Impα3 [4]; Impα3 immobilized via His-tag, error from pseudo-first order fit (Equation 5)): 0.069 ± 0.04 s⁻¹
enthalpy ∆H (∆Impα3 [5]): -4.5 ± 0.7 kcal/mol

DLKVRKAA
Binding, dependence on stereochemistry [6]: binding insensitive to L-/D-stereochemistry has been observed

L-NLS-NUPR1: wild-type isolated NLS region of NUPR1, comprising residues 54 to 74 (TNRPSPGGHERKLVTKLQNSE; UniProt O60356 54-74, looked up, fragment)
Kd (Impα3 [7]): 1700 nM
Kd (∆Impα3 [8]): 950 nM
Hydrodynamic radius Rh (L-NLS) ([9]; estimated from Rh of dioxane): 11 ± 1 Å
Diffusion coefficient D (L-NLS) [9]: 1.85 ± 0.04 10^-6 cm^2 s^-1
